Experiments:
[1] = target: T1, Neuropeptide Y receptor type 5 (Homo sapiens) (UniProt Q15761); assay: Tested for the inhibition of [125I]PYY binding to HEK 293 cells stably expressed with human neuropeptide NPY Y5 receptor at a concentration of 10e-7 M; assay type: cell-based; conditions: HEK293
T1 sequence (whole entry): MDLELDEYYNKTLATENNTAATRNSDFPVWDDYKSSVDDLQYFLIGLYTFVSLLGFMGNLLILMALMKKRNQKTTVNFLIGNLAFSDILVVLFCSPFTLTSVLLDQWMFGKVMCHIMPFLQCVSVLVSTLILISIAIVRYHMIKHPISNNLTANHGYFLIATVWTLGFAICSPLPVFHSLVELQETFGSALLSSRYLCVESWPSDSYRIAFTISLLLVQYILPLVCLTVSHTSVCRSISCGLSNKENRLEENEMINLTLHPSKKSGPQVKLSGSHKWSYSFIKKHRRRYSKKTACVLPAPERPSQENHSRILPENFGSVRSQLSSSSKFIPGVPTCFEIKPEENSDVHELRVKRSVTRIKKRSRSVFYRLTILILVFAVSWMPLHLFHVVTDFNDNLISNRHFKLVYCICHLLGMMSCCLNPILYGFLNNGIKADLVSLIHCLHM

[2] = target: T2, Neuropeptide Y receptor type 5 (Homo sapiens, UniProt Q15761); assay: Inhibitory concentration of total specific binding of [125I]- -PYY to HEK 293 cells transfected with Human NPY-Y5 cDNA (compound prepared by manual synthesis technique); assay type: cell-based, HEK293
T2 sequence (Q15761 whole entry): T1 sequence (whole entry)

[3] = target: T1, Neuropeptide Y receptor type 5 (Homo sapiens); assay: (§1) Tested for the inhibition of [125I]PYY binding to HEK 293 cells stably expressed with human neuropeptide NPY Y5 receptor at a concentration of 10e-6 M; assay type: cell-based; conditions: HEK293
[4] = target: T1, Neuropeptide Y receptor type 5 (Homo sapiens); assay: Tested for the inhibition of [125I]PYY binding to HEK 293 cells stably expressed with human neuropeptide NPY Y5 receptor at a concentration of 10e-8 M; assay type: cell-based; conditions: HEK293
[5] = target: T2, Neuropeptide Y receptor type 5; assay: Inhibitory concentration of total specific binding of [125I]- -PYY to HEK 293 cells transfected with the Human NPY-Y5 cDNA (compound prepared by parallel synthesis technique); assay type: cell-based, HEK293
[6] = target: T1, Neuropeptide Y receptor type 5 (Homo sapiens); assay: Tested for the inhibition of [125I]PYY binding to HEK 293 cells stably expressed with human neuropeptide NPY Y5 receptor at a concentration of 10e-9 M; assay type: cell-based; conditions: HEK293
[7] = target: T2, Neuropeptide Y receptor type 5; assay: Tested for the inhibition of [125I]PYY binding to HEK 293 cells stably expressed with human neuropeptide NPY Y5 receptor; assay type: cell-based, HEK293
[8] = Plasma concentration after oral administration of 100 mg/kg to rats; assay type: ADME, organism-based; parameters: dose 100 mg/kg, route oral; conditions: rat
[9] = target: T2, Neuropeptide Y receptor type 5; assay: as §1; assay type: cell-based, HEK293

Structure (SMILES)	inhibition [1] [%]	IC50 [2] [nM]	inhibition [3] [%]	inhibition [4] [%]	IC50 [5] [nM]	inhibition [6] [%]	IC50 [7] [nM]	Cmax [8] [ng/mL]	IC50 [9] [nM]
O=C(Nc1ccc(CCO)cc1)C1CCN(C(=O)Cn2c(=O)sc3ccc(Cl)cc32)CC1	101	1.7	84.7	74.6	2.9	28.7	–	–	–
O=C(Cn1c(=O)sc2ccc(Cl)cc21)N1CCC(C(=O)N2CCc3ccccc32)CC1	–	–	43.1	43.1	–	–	–	–	–
COc1ccc(NC(=O)C2CCN(C(=O)Cn3c(=O)sc4ccc(Cl)cc43)CC2)cn1	88.5	2.3	94	70.3	2.6	29.9	–	–	–
Cc1cccc(O)c1NC(=O)C1CCN(C(=O)Cn2c(=O)sc3ccc(Cl)cc32)CC1	67.8	–	88.8	-5.3	–	–	–	–	–
O=C(NCCOS(=O)(=O)O)C1CCN(C(=O)Cn2c(=O)sc3ccc(Cl)cc32)CC1	–	–	19.9	–	–	–	–	–	–
O=C(Nc1nc2cc(Cl)ccc2o1)C1CCN(C(=O)Cn2c(=O)sc3ccc(Cl)cc32)CC1	102	3.8	86.2	68.4	4.7	16.5	–	–	–
O=C(Cn1c(=O)sc2ccc(Cl)cc21)N1CCC(C(=O)N2CCc3ccccc3C2)CC1	15.6	–	77.2	–	–	–	–	–	–
NS(=O)(=O)c1ccc(CCNC(=O)C2CCN(C(=O)Cn3c(=O)sc4ccc(Cl)cc43)CC2)cc1	88.8	6.1	102	44.7	9	19.5	–	–	–
O=C(Nc1ccc(Oc2ccccc2)cc1)C1CCN(C(=O)Cn2c(=O)sc3ccc(Cl)cc32)CC1	99.4	1.5	97.2	94.5	0.85	53.2	–	–	–
CCCCCCCCCCNC(=O)C1CCN(C(=O)Cn2c(=O)sc3ccc(Cl)cc32)CC1	106	1.3	–	89.6	2.6	–	–	–	–
Cc1ccc2nc(NC(=O)C3CCN(C(=O)Cn4c(=O)sc5ccc(Cl)cc54)CC3)sc2c1	86.6	10	107	68.1	2.8	31.9	–	–	–
O=C(Nc1ccccc1)C1CCN(C(=O)Cn2c(=O)sc3ccc(Cl)cc32)CC1 [FR-235656]	–	–	–	–	–	–	4.4	–	–
O=C(NCC(O)c1ccccc1)C1CCN(C(=O)Cn2c(=O)sc3ccc(Cl)cc32)CC1 (stereo unspecified)	97.1	1.2	108	79.4	1.1	47.8	–	–	–
CC(=O)c1cccc(NC(=O)C2CCN(C(=O)Cn3c(=O)sc4ccc(Cl)cc43)CC2)c1	98.5	0.59	100	76.8	2	41.5	–	–	–
CN(CCc1ccccn1)C(=O)C1CCN(C(=O)Cn2c(=O)sc3ccc(Cl)cc32)CC1	-3.9	–	87.9	–	–	–	–	–	–
COCCNC(=O)C1CCN(C(=O)Cn2c(=O)sc3ccc(Cl)cc32)CC1	14.5	–	–	–	–	–	–	–	–
O=C(c1ccccc1)c1cccc(NC(=O)C2CCN(C(=O)Cn3c(=O)sc4ccc(Cl)cc43)CC2)c1	101	0.89	102	80.5	1.4	45.3	–	–	–
O=C(Nc1ccc(F)c(C(F)(F)F)c1)C1CCN(C(=O)Cn2c(=O)sc3ccc(Cl)cc32)CC1	97.7	0.59	104	93.2	0.7	52.6	–	–	–
O=C(Cn1c(=O)sc2ccc(Cl)cc21)N1CCC(C(=O)N2CCCc3ccccc32)CC1	59.8	–	51.4	-3.5	–	-4.5	–	–	–
COc1ccc(CNC(=O)C2CCN(C(=O)Cn3c(=O)sc4ccc(Cl)cc43)CC2)cc1	105	2.3	98	61.6	1.4	11.5	–	–	–
Cc1cccc(C(O)CNC(=O)C2CCN(C(=O)Cn3c(=O)sc4ccc(Cl)cc43)CC2)n1 (stereo unspecified) [FR-235208]	–	–	–	–	–	–	–	15700	3.3
O=C(Nc1ccc(Cl)c2ccccc12)C1CCN(C(=O)Cn2c(=O)sc3ccc(Cl)cc32)CC1 [FR-236478]	–	–	–	–	–	–	0.23	–	–
O=C(Nc1cccc2ccccc12)C1CCN(C(=O)Cn2c(=O)sc3ccc(Cl)cc32)CC1	99	17	108	83.4	0.71	49.3	–	–	–
Cc1cc(O)ccc1NC(=O)C1CCN(C(=O)Cn2c(=O)sc3ccc(Cl)cc32)CC1	91.4	4.7	95	41.1	1.4	5.6	–	–	–

Source: ChEMBL document CHEMBL1135282, “Novel potent antagonists of human neuropeptide Y Y5 receptor. Part 1: 2-oxobenzothiazolin-3-acetic acid derivatives” (Bioorg Med Chem Lett, 2002)
